Data taken from PubChem BioAssay (NCI).
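GI50 = concentration required for 50% inhibition of growth. TGI: concentration producing complete growth inhibition.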

Key:
Assay in all cases: NCI anticancer screen, dose series, 384-well format; in the data active = GI50 below about 0.43 µM; inactive = the rest
[1] = tested on: IGROV1 ovarian
[2] = tested on: MDA-MB-468 breast
[3] = tested on: DU-145 prostate
[4] = tested on: UO-31 renal
[5] = tested on: SW-620 colon
[6] = tested on: 786-0 renal
[7] = tested on: HS 578T breast
[8] = tested on: MDA-MB-435 melanoma
[9] = tested on: NCI-H522 lung
[10] = tested on: OVCAR-3 ovarian
[11] = tested on: SK-OV-3 ovarian
[12] = tested on: LOX IMVI melanoma
[13] = tested on: OVCAR-5 ovarian
[14] = tested on: SN12C renal
[15] = tested on: HCC-2998 colon
[16] = tested on: NCI-H460 NSCLC
[17] = tested on: MCF7 breast
[18] = tested on: SF-268 CNS
[19] = tested on: NCI-H322M lung
[20] = tested on: COLO 205 colon
[21] = tested on: RPMI-8226 leukemia
[22] = tested on: A549 NSCLC
[23] = tested on: OVCAR-8 ovarian
[24] = tested on: HL-60(TB) leukemia
[25] = tested on: M14 melanoma
[26] = tested on: A498 renal
[27] = tested on: NCI-H226 lung
[28] = tested on: T-47D breast
[29] = tested on: CCRF-CEM leukemia
[30] = tested on: PC-3 prostate
[31] = tested on: MOLT-4 leukemia
[32] = tested on: SF-295 CNS
[33] = tested on: SK-MEL-28 melanoma
[34] = tested on: SF-539 CNS
[35] = tested on: UACC-257 melanoma
[36] = tested on: EKVX NSCLC
[37] = tested on: MDA-MB-231 breast
[38] = tested on: NCI/ADR-RES ovarian
[39] = tested on: ACHN renal
[40] = tested on: CAKI-1 renal
[41] = tested on: NCI-H23 lung
[42] = tested on: BT-549 breast
[43] = tested on: U251 glioblastoma
[44] = tested on: HT29 colon
[45] = tested on: RXF 393 renal
[46] = tested on: HCT-15 colon
[47] = tested on: SNB-75 CNS

CNC(=O)c1ccc(-c2cnc3ncc(Cc4ccc5ncccc5c4)n3n2)cc1F
> 100 µM: TGI [1] | TGI [2] | TGI [3] | TGI [4] | TGI [5] | TGI [6] | TGI [7] | TGI [8] | TGI [9] | TGI [10] | TGI [11] | TGI [12] | TGI [13] | TGI [14] | TGI [15] | TGI [16] | TGI [17] | TGI [18] | TGI [19] | TGI [20] | TGI [21] | TGI [22] | TGI [23] | TGI [24] | TGI [25] | TGI [26] | TGI [27] | TGI [28] | TGI [29] | TGI [30] | TGI [31] | TGI [32] | TGI [33] | TGI [34] | TGI [35] | TGI [36] | TGI [37] | TGI [38] | TGI [39] | TGI [40] | TGI [41] | TGI [42] | TGI [43] | TGI [44] | TGI [45] | TGI [46]
inactive: GI50 [1] > 100 µM | GI50 [2] > 100 µM | GI50 [3] > 100 µM | GI50 [4] > 100 µM | GI50 [5] > 100 µM | GI50 [6] > 87.7 µM | GI50 [7] > 100 µM | GI50 [8] > 100 µM | GI50 [9] > 100 µM | GI50 [10] > 100 µM | GI50 [11] > 100 µM | GI50 [12] > 100 µM | GI50 [13] > 100 µM | GI50 [14] > 77.6 µM | GI50 [15] > 100 µM | GI50 [16] > 100 µM | GI50 [17] > 100 µM | GI50 [18] > 76.9 µM | GI50 [19] > 100 µM | GI50 [20] > 100 µM | GI50 [21] > 100 µM | GI50 [22] > 100 µM | GI50 [23] > 100 µM | GI50 [24] > 100 µM | GI50 [25] > 100 µM | GI50 [26] > 100 µM | GI50 [27] > 100 µM | GI50 [28] > 100 µM | GI50 [29] > 100 µM | GI50 [30] > 100 µM | GI50 [31] > 100 µM | GI50 [32] > 72.6 µM | GI50 [33] > 100 µM | GI50 [34] > 100 µM | GI50 [35] > 100 µM | GI50 [36] > 100 µM | GI50 [37] > 100 µM | GI50 [38] > 100 µM | GI50 [39] > 100 µM | GI50 [40] > 100 µM | GI50 [41] > 100 µM | GI50 [42] > 100 µM | GI50 [43] > 100 µM | GI50 [44] > 100 µM | GI50 [45] > 43.1 µM | GI50 [46] > 100 µM | GI50 [47] > 61.6 µM
> 94.5 µM: TGI [47]
